Common to all, as to assay: NCI-60 cell line screen, 48 h
Experiment [1] concerns RXF 393.
Experiment [2] deals with NCI-H226.
The subject of experiment [3] is SNB-19.
The subject of experiment [4] is LOX IMVI.
In experiment [5] the test system is SF-268.
Experiment [6] has as its system UO-31.
Experiment [7] deals with DLD-1.
Experiment [8] deals with SF-295.
For experiment [9], the system named is M19-MEL.
Experiment [10] concerns HOP-62.
Experiment [11] concerns U-251.
Experiment [12] concerns K562.
Experiment [13] concerns SN12C.
The test system of experiment [14] is IGROV-1.
The subject of experiment [15] is SNB-75.
Experiment [16] has as its system RPMI-8226.
Experiment [17] has as its system 786-0.
Experiment [18] relates to MDA-N.
The test system of experiment [19] is MDA-MB-231.
For experiment [20], the system named is MDA-MB-435.

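Exposure lasted 48 hours, with cells grown in 96-well plates and compounds tested at five concentrations. The concentration for 50% growth inhibition is given as GI50.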 The source made the active and inactive calls. No stated cut-off is given here; in the data, active = GI50 up to about 1.1 µM and inactive = higher.

This is an account of results in ChEMBL document CHEMBL1201862, “PubChem BioAssay data set” (2004).

For the compound `CN(C)CCN(C)C(=O)C1CCCN1C(=O)OCc1ccccc1` (stereo not given), the GI50 in experiment [1], in experiment [2], in experiment [3], in experiment [4], in experiment [5] and in [6] was > 100 µM (inactive) each time. The GI50 was 71.3 µM (inactive) in experiment [7]; > 100 µM (inactive) in experiment [8]; > 100 µM (inactive) in experiment [9]; > 100 µM (inactive) in experiment [10]; > 100 µM (inactive) in experiment [11]; 61.1 µM (inactive) in experiment [12]. In addition, the GI50 in experiment [13], in experiment [14], in [15], in experiment [16] and in experiment [17] was > 100 µM (inactive) each time.
For the compound `CC[P+]1(c2ccccc2)CCCCC1`, the GI50 in experiment [1], in experiment [2], in [3], in experiment [4], in experiment [5] and in experiment [6] was > 100 µM (inactive) in each case. Further, the GI50 in [7], in [8], in experiment [9], in experiment [10], in experiment [11] and in [12] was > 100 µM (inactive) throughout. Moreover, the GI50 in experiment [13], in [14], in experiment [15], in [16] and in [17] was > 100 µM (inactive) throughout.
As to `N#CC12Cc3cc4c(cc3-c3cccc(c31)CCN2C(=O)c1ccccc1)OCO4` (stereo not given), the GI50 in experiment [1] is 53.1 µM (inactive); in [2], > 100 µM (inactive); in experiment [3], 68.1 µM (inactive); in [4] it was > 100 µM (inactive); in experiment [5] it was > 100 µM (inactive); in experiment [6] it was > 100 µM (inactive). Also, the GI50 in [7] is > 100 µM (inactive); in [8] it was > 100 µM (inactive); in experiment [9], > 100 µM (inactive); in [10] it was 53.8 µM (inactive); in experiment [11], > 100 µM (inactive); in experiment [12] it was > 100 µM (inactive). The GI50 is > 100 µM (inactive) in experiment [13]; > 100 µM (inactive) in experiment [14]; 21.6 µM (inactive) in [15]; > 100 µM (inactive) in experiment [16]; > 10 µM (inactive) in [17].
Consider `Cc1[nH]c(=O)nc(N/N=C/c2ccc(Cl)cc2)c1C(=O)Nc1ccc(Cl)cc1`, for which the GI50 in experiment [1] is 23 µM (inactive); in experiment [2], > 100 µM (inactive); in experiment [18], 31.6 µM (inactive); in [3], 7.41 µM (inactive); in [4] it was 14.9 µM (inactive); in experiment [5] it was 41.8 µM (inactive). Moreover, the GI50 is > 100 µM (inactive) in experiment [6]; > 33.7 µM (inactive) in [7]; 20.6 µM (inactive) in [8]; 16.1 µM (inactive) in experiment [9]; 10.6 µM (inactive) in experiment [10]; 14.5 µM (inactive) in experiment [11]. The GI50 in experiment [12] is 22.9 µM (inactive); in [19] it was 9.2 µM (inactive); in experiment [13], 35.6 µM (inactive); in [14], > 86.3 µM (inactive); in [15], 6.05 µM (inactive); in experiment [16] it was 22.1 µM (inactive). In addition, the GI50 is 39.4 µM (inactive) in experiment [20] and 19.4 µM (inactive) in experiment [17].
For `CC1[C@@]2(CCC(C)(C)O2)O[C@@H]2C=C3C4CCC5Cc6nc7c(nc6C[C@@]5(C)C4C[C@H](O)[C@@]3(C)[C@]12O)CC1CCC2C3=C[C@H]4O[C@@]5(O[C@@](C)(CO)C[C@@H]5O)C(C)[C@@]4(O)[C@]3(C)[C@@H](O)CC2[C@]1(C)C7` (stereo not given in full), the GI50 is 0.00641 µM (active) in experiment [1]; 0.0428 µM (active) in experiment [2]; 0.224 µM (active) in experiment [3]; 0.0526 µM (active) in experiment [4]; 0.05 µM (active) in experiment [5]; 0.047 µM (active) in [6]. Also, the GI50 in [7] was 0.753 µM (active); in experiment [8], 0.00807 µM (active); in experiment [9] it was 0.991 µM (active); in [10] it was 0.0272 µM (active); in experiment [11] it was 0.0266 µM (active); in experiment [12], 0.055 µM (active). Moreover, the GI50 in experiment [13] is 0.975 µM (active); in experiment [14], 0.248 µM (active); in [15] it was 0.00762 µM (active); in experiment [16], 0.00653 µM (active); in experiment [17] it was 0.0168 µM (active).
On to `Cc1ccc2c(ccc(/C=C/c3ccc(O)c4ncccc34)[n+]2C)c1`, for which the GI50 in experiment [1] is 16.3 µM (inactive); in experiment [2], 24.8 µM (inactive); in experiment [18] it was > 24 µM (inactive); in experiment [3], 12.9 µM (inactive); in experiment [4], 2.96 µM (inactive); in experiment [5] it was 2.94 µM (inactive). Also, the GI50 was > 33.9 µM (inactive) in [6]; 2.72 µM (inactive) in [7]; 13.8 µM (inactive) in experiment [8]; 6.08 µM (inactive) in experiment [9]; 6.85 µM (inactive) in experiment [10]; 6.62 µM (inactive) in experiment [11]. Also, the GI50 in [12] is 3.11 µM (inactive); in experiment [19] it was > 33.2 µM (inactive); in experiment [13], 12.1 µM (inactive); in experiment [14], 15.8 µM (inactive); in experiment [15], 19.5 µM (inactive); in experiment [16], 13.9 µM (inactive). Besides, the GI50 in experiment [20] is > 30.4 µM (inactive); in experiment [17], 5.57 µM (inactive).
As to `Cc1ccc2nc3c(C)c(Cl)c(=O)cc-3sc2c1`, the GI50 in [1] was 22.9 µM (inactive); in experiment [2], 5.06 µM (inactive); in experiment [18] it was 16.9 µM (inactive); in experiment [3] it was 24 µM (inactive); in experiment [4], 13.9 µM (inactive); in experiment [5], 26.8 µM (inactive). Also, the GI50 was 10.2 µM (inactive) in [6]; 19.2 µM (inactive) in experiment [7]; 23.3 µM (inactive) in experiment [8]; 4.68 µM (inactive) in experiment [9]; 27.5 µM (inactive) in experiment [10]; 12.7 µM (inactive) in experiment [11]. Also, the GI50 is 3.65 µM (inactive) in experiment [12]; 3.35 µM (inactive) in [19]; 26.6 µM (inactive) in [13]; 37.9 µM (inactive) in [14]; 14.5 µM (inactive) in experiment [15]; 3.85 µM (inactive) in [16]. In addition, the results for the GI50 in [20] and in experiment [17] were 18.5 µM (inactive) and 49.7 µM (inactive), respectively.
For `C=CCC1(CN(C)C)CC/C(=C\c2cc(OC)c(OC)c(OC)c2)C1=O` (stereo not given), the GI50 in [1] is 19.2 µM (inactive); in experiment [2], 52.4 µM (inactive); in experiment [3] it was 34 µM (inactive); in experiment [4] it was 23.2 µM (inactive); in [5], 19.2 µM (inactive); in [6], 26.5 µM (inactive). The GI50 in [7] was 20 µM (inactive); in experiment [8], 38.1 µM (inactive); in [9], 37.1 µM (inactive); in experiment [10], 77.8 µM (inactive); in experiment [11] it was 23 µM (inactive); in [12], 20.4 µM (inactive). Moreover, the GI50 was 22.3 µM (inactive) in [13]; 29.4 µM (inactive) in experiment [14]; 62.2 µM (inactive) in experiment [15]; 24.5 µM (inactive) in experiment [16]; 19.4 µM (inactive) in experiment [17].
